Results on three compounds are retold here after ChEMBL document CHEMBL3714739, “Compounds for the treatment of pain and screening methods therefor” (2008).

In assay [1] the target is T1, Mas-related G-protein coupled receptor member X2 (Homo sapiens) (UniProt Q96LB1).
T1 sequence (whole entry): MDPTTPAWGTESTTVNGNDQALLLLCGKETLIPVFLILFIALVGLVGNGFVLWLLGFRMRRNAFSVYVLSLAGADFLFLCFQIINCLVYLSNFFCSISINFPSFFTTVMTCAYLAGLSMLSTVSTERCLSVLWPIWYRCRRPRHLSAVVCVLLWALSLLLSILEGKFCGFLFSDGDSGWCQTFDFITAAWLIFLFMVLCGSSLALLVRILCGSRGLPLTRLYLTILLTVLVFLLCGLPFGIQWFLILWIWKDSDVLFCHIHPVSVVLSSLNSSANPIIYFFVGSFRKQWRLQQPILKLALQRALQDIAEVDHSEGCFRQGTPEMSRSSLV
The experiment in a line: Activation of human MrgX2 receptor expressed in NIH/3T3 cells incubated for 5 days by beta-galactosidase reporter gene assay relative to STIA. The conditions noted are these: NIH3T3. It counts as cell-based. On the technique in general: A reporter such as luciferase makes a cellular process visible.

Assay [2] addresses Mas-related G-protein coupled receptor member X1 (Homo sapiens) (UniProt Q96LB2). Kind of assay: Activation of human MrgX1 receptor expressed in NIH/3T3 cells incubated for 5 days by beta-galactosidase reporter gene assay relative to Bam22. The settings on record: NIH3T3. It counts as cell-based.

Chain of Mas-related G-protein coupled receptor member X1 (Homo sapiens) (Q96LB2 whole entry): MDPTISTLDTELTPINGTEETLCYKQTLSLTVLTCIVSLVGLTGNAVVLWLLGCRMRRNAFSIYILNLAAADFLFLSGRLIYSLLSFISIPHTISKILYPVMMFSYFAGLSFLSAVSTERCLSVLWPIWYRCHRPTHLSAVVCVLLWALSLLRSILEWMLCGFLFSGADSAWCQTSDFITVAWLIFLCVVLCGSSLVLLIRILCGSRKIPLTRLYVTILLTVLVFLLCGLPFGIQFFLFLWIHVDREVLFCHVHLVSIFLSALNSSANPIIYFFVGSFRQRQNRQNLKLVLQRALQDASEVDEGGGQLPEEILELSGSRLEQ

Regarding `N=C(N)NCCC[C@H](C(N)=O)n1c(-c2cccc(Oc3ccccc3)c2)nc2cc(C(=O)N3CCOCC3)ccc21`, the Efficacy in assay [1] is 6%; in assay [2], 203%.
`N=C(N)NCCC[C@@H](C(N)=O)n1c(-c2cccc(Oc3ccccc3)c2)nc2cc(C(=O)NCc3cccc(C(F)(F)F)c3)ccc21`: the values for the Efficacy in assay [1] and in assay [2] were 21% and 95%, respectively.
Take `N=C(N)NCCC[C@H](C(N)=O)n1c(-c2cccc(Oc3ccccc3)c2)nc2cc(C(=O)Nc3ccc4cn[nH]c4c3)ccc21`: the Efficacy was 2% in assay [1] and 221% in assay [2].
